According to patent publication US3965109A, “Certain aryl amino pyridines” (priority 1971, dated 1976):

Assays:
[1] = system: Aedes aegypti (mosquito adults); assay: Pest toxicity test; assay type: in vivo; settings: 0.01% by weight; plywood; 1 day
[2] = system: Piricularia oryzae (rice); assay type: in vivo; settings: 100 ppm spray and drench; 7 days
Aphis fabae = assay: Pest toxicity test; assay type: in vivo; settings: 0.1% by weight; broad bean; 2 days
[3] = system: Tetranychus telarius (red spider mites, adults); assay: Pest toxicity test; assay type: in vivo; settings: 0.1% by weight; French bean; 3 days
Xanthomonas oryzae = assay type: cell-based; settings: 50 ppm; 5 days
Megoura viceae = assay: Pest toxicity test; assay type: in vivo; settings: 0.1% by weight; broad bean; 2 days
Streptomyces scabies = assay: Antibacterial agar test (B7); assay type: cell-based; settings: 50 ppm; 5 days
[4] = system: Musca domestica (houseflies); assay: Pest toxicity test, contact test; assay type: in vivo; settings: 0.1% by weight; milk/sugar; 2 days; flies sprayed directly
[5] = system: Aedes aegypti (mosquito larvae); assay: Pest toxicity test; assay type: in vivo; settings: 0.01% by weight; water; 1 day
Xanthomonas malvacearum = assay: Antibacterial agar test (B3); assay type: cell-based; settings: 50 ppm; 5 days
Experimental: (§1) This Example illustrates the activity of compounds used as the active ingredients of compositions according to the invention against a variety of plant bacterial diseases and fungal post-harvest saprophytic diseases. In a test for such activity, 5 milligrams of the compound to be tested was dissolved or suspended in 10 ml. of acetone and enough of this solution or suspension was added to 18 ml. of nutrient agar (for the bacterial diseases) or 16 ml. of 2% malt agar (for the fungal diseases) to give a final concentration of 50 parts per million of the compound under test. A streptomycin preparation (2 ml. containing 100 units per ml.) was added to the malt agar to prevent bacterial contamination of the fungal tests.
(§2) The agar preparations were dried overnight in Petri dishes and inoculated the following morning with the bacterial or fungal diseases using a multipoint inoculator. The antibacterial activity was assessed after 5 days and the antifungal activity after 6 days. The results of the tests are set out in Table 16 (anti bacterial activity) and Table 17 (antifungal activity). The results are graded as in Example 1 above.

[6] = system: Corynebacterium michiganense; assay: Antibacterial agar test (B2); assay type: cell-based; settings: 50 ppm; 5 days
Experimental: as §1, §2

Pseudomonas syringae = assay: Antibacterial agar test (B6); assay type: cell-based; settings: 50 ppm; 5 days
[7] = system: Pieris brassicae (cabbage white caterpillars); assay: Pest toxicity test; assay type: in vivo; settings: 0.1% by weight, 2 days
[8] = system: Plutella maculipennis (diamond back moth larvae); assay: Pest toxicity test; assay type: in vivo
[9] = system: Plasmopara viticola (vine); assay: Fungicidal test against foliar disease C (foliage spray plus soil drench); assay type: in vivo; settings: 100 ppm spray and drench; 10 days
[10] = system: Tetranychus telarius (red spider mites, eggs); assay: Pest toxicity test; assay type: in vivo; settings: 0.1% by weight; French bean; 3 days
[11] = system: Agrobacterium tumifaciens; assay: Antibacterial agar test (B1); assay type: cell-based; settings: 50 ppm; 5 days
[12] = system: Phaedon cochleariae (mustard beetles); assay: Pest toxicity test; assay type: in vivo
[13] = system: Puccinia recondita (wheat); assay: Fungicidal test against foliar disease A (foliage spray plus soil drench); assay type: in vivo; settings: 100 ppm spray and drench; 10 days
Erwinia carotovora = assay: Antibacterial agar test (B4); assay type: cell-based; settings: 50 ppm; 5 days
Uncinula necator (vine) = assay: Fungicidal test against foliar disease D (foliage spray plus soil drench); assay type: in vivo; settings: 100 ppm spray and drench; 10 days
Wheat = assay: Herbicidal test, pre- and post-emergence; assay type: in vivo; settings: 10 kg/ha; scale 0 to 3 (complete kill)
Maize = assay: Herbicidal test, pre- and post-emergence; assay type: in vivo; settings: 10 kg/ha; scale 0 to 3 (complete kill)
Tomato = assay: Herbicidal test, pre- and post-emergence; assay type: in vivo; settings: 10 kg/ha; scale 0 to 3 (complete kill)
Lettuce = assay: Herbicidal test, pre- and post-emergence; assay type: in vivo; settings: 10 kg/ha; scale 0 to 3 (complete kill)
[14] = 0.1% by weight, mustard/paper, 2 days

Row | SMILES | Mortality grading (kill) [1] | Mortality grading (kill) (Aphis fabae) | Mortality grading (kill) [3] | Antibacterial activity grading B5 (Xanthomonas oryzae) | Mortality grading (kill) (Megoura viceae) | Antibacterial activity grading B7 (Streptomyces scabies) | Mortality grading (kill), contact test [4] | Mortality grading (kill) [5] | Antibacterial activity grading B3 (Xanthomonas malvacearum) | Antibacterial activity grading B2 [6] | Antibacterial activity grading B6 (Pseudomonas syringae) | Mortality grading (kill) [7] | Mortality grading (kill) ([8]; in vivo) | Mortality grading (kill) [10] | Antibacterial activity grading B1 [11] | Mortality grading (kill) ([12]; in vivo) | Antibacterial activity grading B4 (Erwinia carotovora) | Amount of disease grading, disease D (Table 4) (Uncinula necator (vine)) | Amount of disease grading, disease C (Table 4) [9] | Amount of disease grading, disease A (Table 4) [13] | further results
1 | Fc1nc(F)c(Cl)c(Nc2c(F)c(F)c(F)c3c(F)c(F)c(F)c(F)c23)c1Cl [Compound 20, 3,5-Dichloro-2,6-difluoro-4(1-heptafluoronaphthylamino)pyridine] | 0 (O represents less than 30% kill) | 2 (2 represents 60 - 90% kill) | 3 (3 represents over 90% kill) | 1 (26 to 60) | 2 (2 represents 60 - 90% kill) | 2 (6 to 25) | 0 (O represents less than 30% kill) | 1 (1 represents 30 - 49% kill) | 3 (0 to 5) | 3 (0 to 5) | 2 (6 to 25) | 0 (O represents less than 30% kill) | 3 (key: O represents less than 30% kill; 1 represents 30 - 49% kill; 2 represents 60 - 90% kill; 3 represents over 90% kill; C indicates a chemosterilant effect.; A indicates an antifeeding effect.) | 3 (3 represents over 90% kill) | 0 (61 to 100) | 0 (key: O represents less than 30% kill; 1 represents 30 - 49% kill; 2 represents 60 - 90% kill; 3 represents over 90% kill; C indicates a chemosterilant effect.; A indicates an antifeeding effect.) | 2 (6 to 25) |  |  |  | Amount of disease grading, disease E [2]: 2 (6 to 25); Amount of disease grading, disease C [9]: 3 (0 to 5); Amount of disease grading, disease A [13]: 3 (0 to 5)
2 | O=[N+]([O-])c1cc(Br)c(Nc2c(Cl)c(F)nc(F)c2Cl)c([N+](=O)[O-])c1 [Compound 40, 4(2-Bromo-4,6-dinitroanilino)-3,5-dichloro-2,6-difluoropyridine] | 0 (O represents less than 30% kill) | 3 (3 represents over 90% kill) | 3 (3 represents over 90% kill) | 2 (6 to 25) | 3 (3 represents over 90% kill) | 2 (6 to 25) | 3 (3 represents over 90% kill) | 3 (3 represents over 90% kill) | 3 (0 to 5) | 2 (6 to 25) | 1 (26 to 60) | 0 (O represents less than 30% kill) | 0 (key: O represents less than 30% kill; 1 represents 30 - 49% kill; 2 represents 60 - 90% kill; 3 represents over 90% kill; C indicates a chemosterilant effect.; A indicates an antifeeding effect.) | 3 (3 represents over 90% kill) | 2 (6 to 25) | 2 (key: O represents less than 30% kill; 1 represents 30 - 49% kill; 2 represents 60 - 90% kill; 3 represents over 90% kill; C indicates a chemosterilant effect.; A indicates an antifeeding effect.) | 1 (26 to 60) | 3 (0 to 5) | 3 (0 to 5) | 0 (61 to 100) | Amount of disease grading, disease E (Table 4) [2]: 1 (26 to 60); Damage to plants, post-emergence (Wheat): 0; Damage to plants, pre-emergence (Wheat): 1; Damage to plants, post-emergence (Maize): 0; Damage to plants, pre-emergence (Maize): 1; Damage to plants, post-emergence (Tomato): 1; Damage to plants, pre-emergence (Tomato): 3; Damage to plants, post-emergence (Lettuce): 3; Damage to plants, pre-emergence (Lettuce): 3
3 | O=[N+]([O-])c1ccc(Nc2c(Cl)c(Cl)nc(Cl)c2Cl)c(C(F)(F)F)c1 [Compound 41, 4(4-Nitro-2-trifluoromethylanilino)-tetrachloropyridine] | 0 (O represents less than 30% kill) | 0 (O represents less than 30% kill) | 3 (3 represents over 90% kill) | 1 (26 to 60) | 0 (O represents less than 30% kill) | 0 (61 to 100) | 2 (2 represents 60 - 90% kill) | 3 (3 represents over 90% kill) | 2 (6 to 25) | 0 (61 to 100) | 1 (26 to 60) | 0 (O represents less than 30% kill) |  | 3 (3 represents over 90% kill) | 3 (0 to 5) |  | 1 (26 to 60) | 3 (0 to 5) | 3 (0 to 5) | 0 (61 to 100) | Mortality grading (kill) [8, 14]: 1 (1 represents 30 - 49% kill); Mortality grading (kill) [12, 14]: 2 (2 represents 60 - 90% kill)
4 | O=[N+]([O-])c1ccc(Nc2c(Cl)c(F)nc(Cl)c2Cl)c(C(F)(F)F)c1 [Compound 44, 2-Fluoro-(4-nitro-2-trifluoromethylanilino)3,5,6-trichlorpyridine] | 0 (O represents less than 30% kill) | 0 (O represents less than 30% kill) | 3 (3 represents over 90% kill) | 3 (0 to 5) | 0 (O represents less than 30% kill) | 3 (0 to 5) | 3 (3 represents over 90% kill) | 3 (3 represents over 90% kill) | 3 (0 to 5) | 3 (0 to 5) | 3 (0 to 5) | 3 (3 represents over 90% kill) | 0 (key: O represents less than 30% kill; 1 represents 30 - 49% kill; 2 represents 60 - 90% kill; 3 represents over 90% kill; C indicates a chemosterilant effect.; A indicates an antifeeding effect.) | 3 (3 represents over 90% kill) | 3 (0 to 5) | 0 (key: O represents less than 30% kill; 1 represents 30 - 49% kill; 2 represents 60 - 90% kill; 3 represents over 90% kill; C indicates a chemosterilant effect.; A indicates an antifeeding effect.) | 3 (0 to 5) | 3 (0 to 5) | 3 (0 to 5) | 2 (6 to 25) | Amount of disease grading, disease E (Table 4) [2]: 0 (61 to 100); Damage to plants, post-emergence (Wheat): 0; Damage to plants, pre-emergence (Wheat): 3; Damage to plants, post-emergence (Maize): 1; Damage to plants, pre-emergence (Maize): 0; Damage to plants, post-emergence (Tomato): 3; Damage to plants, pre-emergence (Tomato): 3; Damage to plants, post-emergence (Lettuce): 3; Damage to plants, pre-emergence (Lettuce): 2
